Test results as given in patent publication US8815814B2, “Cosmetic composition containing oligopeptides” (Cognis IP Management GmbH, priority 2010, dated 2014).
Residues, ends and D or L forms follow the SMILES beside them.

Legend:
[1] = tested on: collagen type I; assay: Collagen type I immuno-staining (ICC) in cultured human dermal fibroblasts; assay type: cell-based; settings: peptide at 5.1 μg/ml; for % of staining occupation (collagen type I immuno-staining): human dermal fibroblasts, 72 hours incubation, sodium ascorbyl at 20 μg/ml, control 10.68 +/− 1, mean +/− SEM, 6 measures
Description: The peptide Acetyl-Val-Leu-Leu-Lys (SEQ ID NO:1)was incubated on human dermal fibroblasts cultured in vitro and the expression of the collagen type I was measured using an immunocytochemistry (ICC) method.
The human dermal fibroblasts were cultured within growth medium enriched with Foetal Calf Serum (FCS) at 10% and incubated for 2 days at 37° C. Then the growth medium was exchanged for a standard medium containing sodium ascorbyl at 5 μg/ml with FCS at 1% and with or without the Acetyl-Val-Leu-Leu-Lys (SEQ ID NO:1)peptide at 5.1 μg/ml. A positive control condition with sodium ascorbyl at 20 μg/ml was performed. Cells were incubated for 72 hours at 37° C. with the peptide. Cultured human dermal fibroblasts were fixed by acetone for 10 minutes at −20° C. and incubated for 1 hour at room temperature with a primary antibody against collagen type I [Abcam] diluted at 1/250. Fluorescein isothiocyanate (FITC) labelled secondary antibody [CliniSciences, France] was used for revelation. The obtained immuno-staining was observed using a confocal laser scanning microscope [TCS SPE, Leica, France] and quantified by an image analyzer [Quantimet Q5001W, Leica, France]. The staining occupation was evaluated. The results were presented as a mean +/−SEM (Standard Error of Mean) from 6 measures.

[2] = tested on: collagen type XIV gene (COL14A1); assay: COL14A1 mRNA level by qRT-PCR in human dermal fibroblasts; assay type: cell-based; settings: peptide at 1.0 μg/ml; for level of COL14A1 mRNA (control = 100%): vs EEF1A1 housekeeping gene, mean +/− SEM
Description: The peptide Acetyl-Val-Leu-Leu-Lys (SEQ ID NO:1) was incubated on human dermal fibroblasts cultured in vitro and the expression of the collagen type XIV gene (COL14A1) was measured using a quantitative reverse-transcription and polymerase chain reaction (qRT-PCR) method.
(§1) The human dermal fibroblasts were cultured within growth medium enriched with FCS at 10% and incubated for 1 day at 37° C. Then the growth medium was exchanged for a standard medium without FCS but with or without the Acetyl-Val-Leu-Leu-Lys (SEQ ID NO:1) peptide at 1.0 μg/ml. Cells were then incubated for 24 hours, 48 hours or 72 hours at 37° C. before extraction of total RNA. The level of COL14A1 mRNAs in the different conditions was evaluated comparatively to the level of EEF1A1 mRNA as housekeeping gene (qRT-PCR method) for each condition.
The results were calculated through the level of COL14A1 mRNA measured in the control condition (without peptide treatment) for the different incubation times as 100% and presented as a mean+/−SEM from 3 or 5 assays in duplicate.

[3] = tested on: tropoelastin gene (ELN); assay: ELN mRNA level by qRT-PCR in human dermal fibroblasts; assay type: cell-based; settings: peptide at 1.0 μg/ml; for level of ELN mRNA (control = 100%): vs EEF1A1 housekeeping gene, mean +/− SEM
Description: The peptide Acetyl-Val-Leu-Leu-Lys (SEQ ID NO:1) was incubated on human dermal fibroblasts cultured in vitro and the expression of the tropoelastin gene (ELN) was measured using a qRT-PCR method.
as §1, with “were” for “were then”, “ELN” for “COL14A1”, “EEF1A 1” for “EEF1A1”, “condition. The results were calculated through the level of ELN mRNA measured in the control condition (without peptide treatment) as 100% and presented as a mean+/−SEM from 3 assays in duplicate.” for “condition.”

[4] = tested on: glutaredoxin-2 gene (GLRX2); assay: GLRX2 mRNA level by qRT-PCR in human dermal fibroblasts; assay type: cell-based; settings: peptide at 1.0 μg/ml, 6 hours
Description: The peptide Acetyl-Val-Leu-Leu-Lys (SEQ ID NO:1) was incubated on human dermal fibroblasts cultured in vitro and the expression of the glutaredoxin-2 gene (GLRX2), involved in cellular anti-oxidative defenses) was measured using a qRT-PCR method.
as §1, with “FCS” for “FCS but”, “were” for “were then”, “6” for “24 hours, 48 hours or 72”, “GLRX2” for “COL14A1”, “mRNAs” for “mRNAs in the different conditions”, “HPRT1 (hypoxanthine phosphoribosyltransferase 1)” for “EEF1A1”
The results were calculated through the level of GLRX2 mRNA measured in the control condition (without peptide treatment) as 100% and presented as a mean +/−SEM from 3 assays in duplicated.

[5] = tested on: epithelial cells from rabbit cornea; settings: Hara et al., Exp Eye Res, 2001; cited from earlier work
[6] = tested on: injured rabbit cornea; settings: Hara et al., Exp Eye Res, 2001; cited from earlier work

Compound	% of staining occupation (collagen type I immuno-staining) [1]	effect on the level of collagen type I (in words) ([1]; compared with sodium ascorbyl at 20 μg/ml)	level of COL14A1 mRNA (control = 100%) ([2]; treatment duration 24 hours)	level of COL14A1 mRNA (control = 100%) ([2]; treatment duration 48 hours)	level of COL14A1 mRNA (control = 100%) ([2]; treatment duration 72 hours)	effect on the level of COL14A1 gene expression (in words) ([2]; detected after 24 hours, maintained during 3 days)	effect on the level of ELN gene expression (in words) [3]	level of ELN mRNA (control = 100%) ([3]; treatment duration 24 hours)	level of ELN mRNA (control = 100%) ([3]; treatment duration 48 hours)	level of ELN mRNA (control = 100%) ([3]; treatment duration 72 hours)	effect on the level of GLRX2 gene expression (in words) [4]	level of GLRX2 mRNA (control = 100%) ([4]; vs HPRT1 housekeeping gene, mean +/− SEM)	proliferation of epithelial cells from rabbit cornea (in words) [5]	wound healing activity on injured rabbit cornea (in words) [6]
CC(=O)N[C@H](C(=O)N[C@@H](CC(C)C)C(=O)N[C@@H](CC(C)C)C(=O)N[C@@H](CCCCN)C(=O)O)C(C)C [Acetyl-Val-Leu-Leu-Lys, N-Acetyl-Val-Leu-Leu-Lys-OH] (Ac-VLLK-OH)	31.07 +/− 2.22 (**) %	significantly increased	175 +/− 23 (*) %	220 +/− 32 (*) %	213 +/− 27 (*) %	specifically and significantly increased	specifically and significantly increased	127 +/− 11 (*) %	143 +/− 10 (*) %	217 +/− 49 (*) %	specifically increased	145 +/− 20 (*) %	–	–
Val-Leu-Leu-His (VLLH; tetrapeptide)	–	–	–	–	–	–	–	–	–	–	–	–	stimulate proliferation	significant wound healing activity
Sodium ascorbyl [reference compound]	18.01 +/− 1.07 (**) %	–	–	–	–	–	–	–	–	–	–	–	–	–
